Read-outs that look alike come from different tables or passages of the source.
Tests used:
PARP1 [1] = target: T1, PARP1 (Homo sapiens, UniProt P09874); assay: Michaelis-Menten kinetic analysis of PARP1 enzymatic activity in solution (FIG. 1); format: biochemical
Description: Cloned human PARP-1 (8 nanomolar) was incubated with 100 nanomolar dA/dT, 50 micrograms/milliliter histone Hi and varying concentrations (50, 150, 450 micromolar) of ^32P-NAD^+ in the absence and presence of inhibitor (50 micromolar) at physiological pH (7.3) as described (E. Kirsten, E. Kun, J. Mendeleyev, C. P. Ordahl, Methods in Molecular Biology 287 137 (2004) and Kun, 2004 op cit). Reactions were started by the addition of PARP-1 and incubated for 10 minutes at room temperature after which acid precipitable ^32P was determined.
Target sequence in this assay (P09874 whole entry): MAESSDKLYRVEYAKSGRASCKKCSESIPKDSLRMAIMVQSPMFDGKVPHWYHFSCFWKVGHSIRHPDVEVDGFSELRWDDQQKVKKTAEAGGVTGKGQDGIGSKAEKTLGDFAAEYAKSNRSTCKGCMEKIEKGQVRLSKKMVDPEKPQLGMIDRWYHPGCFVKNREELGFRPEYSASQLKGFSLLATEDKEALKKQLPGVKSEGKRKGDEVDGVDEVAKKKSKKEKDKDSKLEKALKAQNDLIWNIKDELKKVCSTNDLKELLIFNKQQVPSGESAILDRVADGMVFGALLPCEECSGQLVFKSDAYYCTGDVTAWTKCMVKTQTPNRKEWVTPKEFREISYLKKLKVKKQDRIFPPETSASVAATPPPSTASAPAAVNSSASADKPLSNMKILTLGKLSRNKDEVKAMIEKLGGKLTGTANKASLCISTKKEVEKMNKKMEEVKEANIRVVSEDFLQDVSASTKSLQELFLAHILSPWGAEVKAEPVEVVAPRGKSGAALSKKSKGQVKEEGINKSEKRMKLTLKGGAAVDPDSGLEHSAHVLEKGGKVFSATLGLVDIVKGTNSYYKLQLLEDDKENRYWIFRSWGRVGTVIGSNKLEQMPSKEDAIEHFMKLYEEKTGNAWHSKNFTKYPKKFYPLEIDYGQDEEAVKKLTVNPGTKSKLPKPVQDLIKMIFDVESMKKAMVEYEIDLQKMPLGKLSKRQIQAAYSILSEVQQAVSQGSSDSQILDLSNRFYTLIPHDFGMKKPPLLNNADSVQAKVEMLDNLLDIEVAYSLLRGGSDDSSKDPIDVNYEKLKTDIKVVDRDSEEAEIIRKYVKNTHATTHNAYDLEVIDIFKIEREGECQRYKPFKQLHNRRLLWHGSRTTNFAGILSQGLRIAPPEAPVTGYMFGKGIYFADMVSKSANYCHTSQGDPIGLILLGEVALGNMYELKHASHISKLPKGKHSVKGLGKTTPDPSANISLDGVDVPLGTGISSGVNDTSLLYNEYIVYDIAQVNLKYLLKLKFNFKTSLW

[2] = test system: Calu-6, a human lung carcinoma cell line; assay: 14-day culture of neoplastic cells with HAT, morphology and cell number (FIG. 2); format: cell-based; conditions: Calu-6, 10 micromolar, 14 days in culture (more than 300 without drug)
Description: (§1) FIGS. 2A-D illustrate HAT-Pi effects on two neoplastic cell lines; a) Calu-6, a human lung carcinoma cell line; and, b) DU-145, a human prostate metastatic carcinoma cell line.
(§2) Additionally, the overall appearance of the cultures and the morphology of the surviving cells is altered in specific ways. First, the remaining (surviving) cells are tightly adherent to the surface of the culture dish giving them a “flattened” appearance. Second, neoplastic cell expansion is attributable to cytoplasmic growth, which leaves the smaller internal cell nuclei distinctive in outline. Third, many cell outlines are “ruffled” in some regions due to the presence of lamellipodia, plasmalemma projections that are the leading edges of cell expansion (open arrows in FIGS. 2B and 2D). Fourth, specialized cell-cell contact and communication regions are evident where the lamellipodia of two or more cells meet (closed arrows in FIGS. 2B and 2D). […] These characteristic features of HAT-treated neoplastic cells indicate that substrate-attachment-dependent survival and contact inhibition have both been restored in surviving neoplastic cells. […]

[3] = test system: DU-145, a human prostate metastatic carcinoma cell line; assay: as above; format: cell-based; conditions: DU-145, 10 micromolar, 14 days in culture (more than 300 without drug)
Description: as §1, §2

PARP1 [4] = conditions: solution; Rankin, 1989; cited from earlier work
PARP1 [5] = target: T2, PARP1 (Mus musculus, UniProt P11103); conditions: cultured 10T1/2 cells; Rankin, 1989; cited from earlier work
T2 construct: solution/cultured 10T1/2 cells; endogenous in cells; host or cells: cultured 10T1/2 cells

PARP1 [6] = target: T1, PARP1; conditions: solution; Pivazyan, 1992; cited from earlier work
Target sequence in this assay (P09874 whole entry, species assumed): as the sequence (P09874 whole entry) above

Unresectable Sarcoma = conditions: trial e, 1987, 5 patients, dose 1.3, iv, with radiation, multiple cycles up to 5 months; cited from earlier work
PARP1 [7] = target: T1, PARP1; design: isolated HeLa cell nuclei; endogenous in cells; host or cells: isolated HeLa cell nuclei; conditions: 1 mM; Preiss, 1971; cited from earlier work
Target sequence in this assay (P09874 whole entry): as above

PARP1 [8] = target: T1, PARP1; design: isolated HeLa cell nuclei; endogenous in cells; host or cells: isolated HeLa cell nuclei; conditions: 50 mM; Filetti, 1981; cited from earlier work
Target sequence in this assay (P09874 whole entry): as above

[9] = after infusion of bromodeoxyuridine or iododeoxyuridine; cited from earlier work
PARP1 [10] = target: T1, PARP1; conditions: cited from earlier work
Target sequence in this assay (P09874 whole entry, species assumed): as the sequence (P09874 whole entry) above

[11] = cited from earlier work
HeLa cells = conditions: cell culture; Sumikawa 2005; cited from earlier work
[12] = schedule A, single oral dose 2.40 Grams IPdR per M^2/day
[13] = schedule B, single oral dose 1.20 Grams IPdR per M^2/day
[14] = schedule C, single oral dose 0.60 Grams IPdR per M^2/day
[15] = schedule D, single oral dose 0.30 Grams IPdR per M^2/day
[16] = schedule E, single oral dose 0.15 Grams IPdR per M^2/day

T2 sequence (P11103 whole entry): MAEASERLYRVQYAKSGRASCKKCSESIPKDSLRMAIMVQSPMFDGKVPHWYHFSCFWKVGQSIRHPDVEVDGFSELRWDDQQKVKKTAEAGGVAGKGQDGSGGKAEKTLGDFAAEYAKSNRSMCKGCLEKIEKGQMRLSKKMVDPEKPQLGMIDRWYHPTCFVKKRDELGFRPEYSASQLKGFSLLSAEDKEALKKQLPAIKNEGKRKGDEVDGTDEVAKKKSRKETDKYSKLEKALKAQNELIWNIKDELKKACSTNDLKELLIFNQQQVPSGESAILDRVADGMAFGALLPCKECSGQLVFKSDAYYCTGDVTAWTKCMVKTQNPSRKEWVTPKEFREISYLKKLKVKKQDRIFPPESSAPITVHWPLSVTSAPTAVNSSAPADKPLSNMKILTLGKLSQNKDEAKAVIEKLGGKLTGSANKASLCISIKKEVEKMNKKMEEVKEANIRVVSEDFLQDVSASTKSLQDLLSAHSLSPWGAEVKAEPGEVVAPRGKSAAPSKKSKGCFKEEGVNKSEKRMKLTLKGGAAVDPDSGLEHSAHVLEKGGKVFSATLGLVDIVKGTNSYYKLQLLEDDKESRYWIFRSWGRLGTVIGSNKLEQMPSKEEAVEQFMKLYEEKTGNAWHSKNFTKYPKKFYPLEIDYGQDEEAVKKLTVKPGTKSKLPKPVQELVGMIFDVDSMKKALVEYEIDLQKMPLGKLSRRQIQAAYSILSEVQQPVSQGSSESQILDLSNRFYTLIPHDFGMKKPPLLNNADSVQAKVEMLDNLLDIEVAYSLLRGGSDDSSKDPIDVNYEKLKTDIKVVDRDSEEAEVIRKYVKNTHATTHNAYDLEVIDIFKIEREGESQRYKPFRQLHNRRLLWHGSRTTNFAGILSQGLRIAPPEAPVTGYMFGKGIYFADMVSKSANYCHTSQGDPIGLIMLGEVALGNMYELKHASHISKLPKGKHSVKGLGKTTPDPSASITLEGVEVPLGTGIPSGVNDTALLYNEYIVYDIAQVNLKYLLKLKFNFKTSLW

O=c1[nH]c(=O)n([C@H]2C[C@H](O)[C@@H](CO)O2)cc1Br [Bromodeoxyuridine, 5-bromodeoxyuridine]
Ki (PARP1 [1]; intercept of Lineweaver-Burk plot, 50 micromolar inhibitor, pH 7.3, read-out: inhibition constant): 10 to 30 µM
total number of cells per field [2]: < 50 cells per field
total number of cells per field [3]: < 50 cells per field
IC50 (PARP1 [4]): 15 µM
IC50 (PARP1 [5]): 57 µM
Ki (PARP1 [6]): 35 µM
objective improvement (Unresectable Sarcoma): 20%
subjective improvement (Unresectable Sarcoma): 20%
reported HAT inhibitory effect: inhibition (PARP1 [7]): 1 mM = 97% inhibition
reported HAT inhibitory effect (PARP1 [8]): 50 mM blocks hormone sensitization

O=c1[nH]cc(I)c(=O)[nH]1 [Iodouracil, 5-iodouracil]
catabolite concentration accumulated in patient plasma [9]: ~100 µM
inhibition of PARP1 enzymatic activity (PARP1 [10]): demonstrated capacity to inhibit PARP1 enzymatic activity

O=c1ncc(I)cn1[C@H]1C[C@H](O)[C@@H](CO)O1 [IPdR, 5-iodo-2-pyrimidinone-2′-deoxyribose]
IU AUC [11, 12]: 1057.8 µM·h
IdU AUC [11, 12]: 12.2 µM·h
[IU] plasma (iodouracil), average maximum concentration [11, 12]: 133 µM
[IdU] plasma, average maximum concentration [11, 12]: 4.0 µM
IU AUC [11, 13]: 102.7 µM·h
IdU AUC [11, 13]: 4.7 µM·h
[IU] plasma (iodouracil), average maximum concentration [11, 13]: 34.2 µM
[IdU] plasma, average maximum concentration [11, 13]: 2.1 µM
IU AUC [11, 14]: 17.2 µM·h
IdU AUC [11, 14]: 3.2 µM·h
[IU] plasma (iodouracil), average maximum concentration [11, 14]: 4.5 µM
[IdU] plasma, average maximum concentration [11, 14]: 1.8 µM
IU AUC [11, 15]: 4.5 µM·h
IdU AUC [11, 15]: 0.3 µM·h
[IU] plasma (iodouracil), average maximum concentration [11, 15]: 0.8 µM
[IdU] plasma, average maximum concentration [11, 15]: 0.3 µM
IU AUC [11, 16]: 1.0 µM·h
IdU AUC [11, 16]: 1.7 µM·h
[IU] plasma (iodouracil), average maximum concentration [11, 16]: 0.2 µM
[IdU] plasma, average maximum concentration [11, 16]: 0.8 µM
time to average peak concentration of iododeoxyuridine in patient plasma ([11]; single oral dose of IPdR): ≤ 2 h

NC(=O)c1cccc(N)c1 [3-amino-benzamide]
mode of inhibition (PARP1 [1]; Lineweaver-Burk plot, lines intersect vertical axis at control point): in competition with the substrate

Cc1cn([C@H]2C[C@H](O)[C@@H](CO)O2)c(=O)[nH]c1=O [Thymidine, thymidine]
concentration that induces HeLa cells to attach, flatten and undergo cell death and disintegration (HeLa cells): > 1.0 millimolar

O=c1[nH]cc(Br)c(=O)[nH]1 [Bromouracil, 5-bromouracil]
catabolite concentration accumulated in patient plasma [9]: ~100 µM
inhibition of PARP1 enzymatic activity (PARP1 [10]): demonstrated capacity to inhibit PARP1 enzymatic activity

Source: patent publication US11020416B2, “Cancer chemotherapy employing halogenated analogs of thymidine” (priority 2015, dated 2021)
